The source of these data is patent US7074807B2, “Compositions and methods for inducing cell death” (Georgetown University, priority 1998, dated 2006).

Holding throughout (assay type): cell-based, human
In data set [1] the test system is MDA-MB 231 cells. The data set can be described thus: Cell viability assay (WST-1). To be noted: 10 mM, within 2 h. As to the method: FIG. 6. Effects of tempol and tempo on cell viability. […] Control cells were grown overnight in serum-free medium, followed by treatment with 1% ethanol for various times. Fresh serum-free medium (100 ul) was added to each well in all plates, including controls followed by the addition of WST-1 (10 ul). Plates were incubated for 2 h at 37° C. and the color solution developed by WST-1 was quantified using a MR 700 microplate reader at OD=450/600. Values shown are mean±s.d. of 6 determinations per treatment condition in a representative experiment, and the experiment was repeated three times.
Cell Viability Assay—Effects of nitroxide compounds on cell viability and proliferation were determined using a cell viability detection kit (4-[3-(4-Iodophenyl)-2-(4-nitrophenyl)-2H-5-tetrazolio]-1,3-benzene disulfonate, WST-1) according to the manufacturer's instructions (Boehringer Mannheim, Indianapolis, Ind.). Briefly, MDA-MB 231 cells were seeded onto 96 well plates at density of 10,000 cells per well and maintained overnight in 10% FBS containing medium. The cells were then washed twice with phosphate buffered saline and re-fed in serum-free medium. The following day, cells were treated for various times with tempol (10 mM) or tempo (10 mM), using six wells per treatment condition. […] Plates were incubated for 2 h at 37° C. and analyzed at OD=450/600 using a MR 700 microplate reader.
For orientation: Formazan colour is commonly taken as a measure of viable cells.

In data set [2] the test system is MDA-MB 231 cells. Briefly: Protein tyrosine phosphorylation (anti-PY immunoprecipitation/immunoblot). As to conditions: 10 mM, 15 min to 2 h. Here is the method:
FIG. 2. Effects of tempol and tempo on protein tyrosine phosphorylation. Subconfluent cultures were grown in serum-free medium overnight, followed by treatment with tempol (10 mM) or tempo (10 mM) for indicated times and lysis. Normalized protein contents (1 mg) were immunoprecipitated with agarose-conjugated anti-PY MAb, and then immunoblotted with anti-PY MAb. Data shown is representative of two independent experiments. UT, untreated cells grown overnight in serum-free medium.
Cell Culture, Treatments with Tempol and Tempo, and Preparation of Cell Lysates—MDA-MB 231 human breast cancer cells were grown to near confluence in 75 cm^2 tissue culture flasks in Improved Minimum Essential Medium (IMEM) (Cellgro) containing 10% fetal bovine serum (FBS) and 2 mM L-glutamine in a humidified atmosphere of 5% CO2: 95% air at 37° C. Cells were trypsinized and plated into a 150 mm tissue culture dish (two dishes per flask) overnight in medium containing 10% FBS followed by two washes with phosphate buffer saline (PBS). […]
Immunoprecipitation and Immunoblotting—Whole cell lysate (1 mg) was immunoprecipitated with the appropriate agarose-conjugated antibody (1 ug/ml of lysis buffer) overnight at 4° C. with constant agitation. […] The bands of interest were quantified by ImageQuant software version 3.3 (Molecular Dynamics Personal Densitometer, Sunnyvale, Calif.). […]

In another data set the test system is ERK1. The data set can be described thus: ERK1 activity (MBP phosphorylation of ERK1 immunoprecipitates). To be noted: 10 mM, 2 h, MDA-MB 231 cells. As to the method:
FIGS. 4A, 4B. Tempol stimulates ERK1 activity. […] WCL (1 mg) were immunoprecipitated with agarose-conjugated anti-ERK1 antibody, and in vitro MBP phosphorylation assay was performed as described in experimental procedures. The incorporation of γ^32P into MBP was determined in a filter binding assay 4A. In other independent experiments, the reaction products were electrophoresed on 15% SDS-PAGE and MBP (at ˜18 kDa) was visualized by autoradiography 4B. Cont/Control, cells grown overnight in serum-free medium, and treated with 1% ethanol for 2 h.
ERK and SAPK/JNK Activities—Whole cell lysates prepared as described above were immunoprecipitated (1 mg) with an agarose conjugated anti-ERK1 antibody or an agarose conjugated anti-JNK1 antibody for 2 h at 4° C. with constant agitation. The immune-complexes were washed 3 times in lysis buffer and once in KBB as mentioned earlier. ERK or JNK activity assay was carried out according to manufacturer's procedures (UBI). […] The radioactive filters were washed and counted as described above. […] The radiolabeled GST-cJun fusion protein was detected by autoradiography.

Each structure is given as a SMILES string. Where only a bound is given, the exact number is not on record here.

In the case of `CC1(C)CC(O)CC(C)(C)N1[O]` [tempol, 4-hydroxy-tempo, reference compound], the “decrease in the number of viable cells” value in the data set on MDA-MB 231 cells [1] is on record as “comparable to control cells”. Further, the protein tyrosine phosphorylation entry in the data set on MDA-MB 231 cells [2] is on record as “minimal protein tyrosine phosphorylation”. In addition, in the data set with ERK1, the “increase in the enzymatic activity of ERK1” value is on record as “Approximately 3 fold”.

Turning to `CC1(C)CCCC(C)(C)N1[O]` [tempo, 2,2,6,6-tetramethylpiperidine-N-oxyl], the “decrease in the number of viable cells” value in the data set on MDA-MB 231 cells [1] is over 50%. The protein tyrosine phosphorylation result with MDA-MB 231 cells [2] is “conspicuous increase”. The “increase in the enzymatic activity of ERK1” value in the data set on ERK1 is listed as “no change in ERK1 activity”.
